Measured values as given in patent US11020391B2, “CRMP2 sumoylation inhibitors and uses thereof” (ARIZONA BOARD OF REGENTS ON BEHALF OF THE UNIVERSITY OF …, priority 2015, dated 2021).

Assays:
[1] = test system: spared nerve injury model of neuropathic pain; assay: Spared nerve injury model, mechanical hypersensitivity (paw withdrawal threshold); type: in vivo, rat; conditions: spinal administration 5 μg/10 μL; 7 days post-injury; n=6
Method: Rat Behavioral Pain Assay: Compound AZ002 reversed mechanical hypersensitivity in a model of nerve-injury induced chronic pain.
Data was analyzed using one-way ANOVA followed by Dunnett's Multiple Comparison Test using post injury baseline as control.
Indwelling intrathecal catheter: Rats were anesthetized (ketamine/xylazine anesthesia, 80/12 mg/kg i.p.; Sigma-Aldrich) and placed in a stereotaxic head holder. The cisterna magna was exposed and incised, and an 8-cm catheter (PE-10; Stoelting) was implanted terminating in the lumbar region of the spinal cord. Catheters were sutured (3-0 silk suture) into the deep muscle and externalized at the back of the neck; skin was closed with autoclips. After a recovery period of 5-7 days after implantation of the indwelling cannula, the spared nerve injury was induced.
Spared Nerve Injury (SNI): Under isoflurane anesthesia (5% induction, 2.0% maintenance in 2 L/min air), skin on the lateral surface of the left hind thigh was incised. […]
Mechanical Allodynia: Rats were allowed to acclimate within suspended wire mesh cages for 30 minutes prior to behavioral assessment. […] Paw withdrawal thresholds were calculated in grams using the Dixon non-parametric test and expressed as the Paw Withdrawal Threshold (mean±standard error; SEM) in GraphPad Prism 6.0. […]

[2] = test system: TTX-S NaV1.7 currents in rat DRGs; assay: Patch clamp TTX-S NaV1.7 currents in rat DRGs; type: cell-based; conditions: FIG. 5
Method: Culturing and Transfection of rat Primary Dorsal Root Ganglia (DRG) Neurons: Rat DRG neurons were isolated from 150-174 g Sprague-Dawley rats and then transfected using known procedures. In brief, removing dorsal skin and muscle and cutting the vertebral bone processes parallel to the dissection stage exposed DRGs. DRGs were then collected, trimmed at their roots, and digested in 3 ml bicarbonate free, serum free, sterile DMEM (Cat #11965, Thermo Fisher Scientific, Waltham, Mass.) solution containing neutral protease (3.125 mg·ml-1, Cat #LS02104, Worthington, Lakewood, N.J.) and collagenase Type I (5 mg·ml-1, Cat #LS004194, Worthington, Lakewood, N.J.) and incubated for 45 min at 37° C. under gentile agitation. Dissociated DRG neurons (˜1.5×106) were then gently centrifuged to collect cells and washed with DRG media DMEM containing 1% penicillin/streptomycin sulfate from 10 000 μg/ml stock, 30 ng.ml-1 nerve growth factor, and 10% fetal bovine serum (Hyclone). Collected cells were re-suspended in Nucleofector transfection reagent containing plasmids or siRNA at the working concentrations listed above. Then, cells were subjected to electroporation protocol O-003 in an Amaxa Biosystem (Lonza, Basel, Switzerland) and plated onto poly-D-lysine—and laminin-coated glass 12- or 15-mm coverslips. Transfection efficiencies were routinely between 20% and 30% with about ˜10% cell death. […]

[3] = PK profile of compound AZ002; conditions: in vivo
Excerpt: In some instances, compounds of the invention are provided as a pharmaceutical acceptable salt. Suitable pharmaceutical acceptable salts include those disclosed herein. In some embodiments, pharmaceutically acceptable salts of compounds of the invention provide a better pharmacokinetics.

[4] = test system: human DRGs in a mixed glia-DRG co-culture; assay: Cell morphology or health of human DRGs after overnight incubation; type: cell-based
[5] = test system: TTX-S NaV1.7 currents in human DRGs; assay: Patch clamp H-infinity subtracted NaV1.7 currents in human DRGs; type: cell-based; conditions: FIG. 5
Method: Patch Clamp Electrophysiology: Whole cell voltage clamp and current clamp recordings were performed at room temperature using an EPC 10 Amplifier-HEKA. The internal solution for voltage clamp CAD cell recordings contained (in mM): 110CsCl, 5 MgSO4, 10 EGTA, 4 ATP Na2-ATP, and 25 HEPES (pH 7.3, 290-310 mOsm/L) and external solution contained (in mM): 100 NaCl, 10 tetraethylammonium chloride, 1 CaCl2, 1 CdCl2, 1 MgCl2, 10 D-glucose, 4 4-aminopyridine, 0.1 NiCl2, 10 HEPES (pH 7.3, 310-315 mosM/L). For DRG and HEK293 cells the internal solution for voltage clamp contained (in mM): 140CsF, 1.1Cs-EGTA, 10 NaCl, and 15 HEPES (pH 7.3, 290-310 mOsm/L) and external solution contained (in mM): 140 NaCl, 3 KCl, 30 tetraethylammonium chloride, 1 CaCl2, 0.5 CdCl2, 1 MgCl2, 10 D-glucose, 10 HEPES (pH 7.3, 310-315 mosM/L). […]
Voltage clamp protocols: CAD and HEK293 cells were subjected to current-density (I-V) and fast-inactivation voltage protocols. […] The TTX-R peak current density was always measured at depolarizations near 0 mV and within 10 ms of the voltage step protocol. […] Thus, sodium current present at 150 ms following a voltage pulse to −60 mV was analyzed, an established method of isolating Nav1.9 current. […]

## COc1cc(OC)cc(C(=O)Nc2ccc(N3CCN(C)CC3)cc2)c1 [AZ002]
[1]
  reversal of mechanical hypersensitivity: significantly reversed
[2]
  inhibition of TTX-S NaV1.7 currents: inhibits
[3]
  Cmax: 263 ng/mL
  Tmax: 2 h
  half-life: 5.8 h
[3]; 0-24 hr
  AUC(0-t): 2380 ng·h/mL
[3]; read-out: bioavailability (F)
  bioavailability: 31%
[4]
  effect on cell morphology or health: does not affect cell morphology or health
[5]
  inhibition of TTX-S NaV1.7 currents: inhibits
